Laboratory results as given in ChEMBL document CHEMBL1140475, “Structure-activity relationship (SAR) investigations of substituted imidazole analogs as TRPV1 antagonists” (Bioorg Med Chem Lett, 2007).

Assays:
[1] = Half life in Sprague-Dawley rat at 1 mg/kg, iv; format: ADME, organism-based; design: dose 1 mg/kg, route intravenous; conditions: in vivo
[2] = Bioavailability in Sprague-Dawley rat at 5 mg/kg; format: ADME, organism-based; conditions: in vivo
[3] = molecular target: T1, Transient receptor potential cation channel subfamily V member 1 (Rattus norvegicus, UniProt O35433); test: Antagonist activity at rat TRPV1 expressed in CHO cells assessed blocking of capsaicin-induced calcium influx; format: functional, cell-based
[4] = Volume of distribution at steady state in Sprague-Dawley rat at 1 mg/kg, iv; format: ADME, organism-based; design: dose 1 mg/kg, route intravenous; conditions: in vivo, read-out: Vdss
[5] = molecular target: T1, Transient receptor potential cation channel subfamily V member 1; test: Antagonist activity at rat TRPV1 expressed in CHO cells assessed blocking of acid-induced calcium influx at pH 5; format: functional, cell-based
[6] = Clearance in Sprague-Dawley rat at 1 mg/kg, iv; format: ADME, organism-based; design: dose 1 mg/kg, route intravenous; conditions: in vivo
[7] = Cmax in Sprague-Dawley rat at 5 mg/kg, po; format: ADME, organism-based; design: dose 5 mg/kg, route oral; conditions: in vivo
[8] = Tmax in Sprague-Dawley rat at 5 mg/kg, po; format: ADME, organism-based; design: dose 5 mg/kg, route oral; conditions: in vivo
[9] = AUC (0 to infinity) in Sprague-Dawley rat at 5 mg/kg, po; format: ADME, organism-based; design: time infinity, dose 5 mg/kg, route oral; conditions: plasma
[10] = AUC (0 to infinity) in Sprague-Dawley rat at 1 mg/kg, iv; format: ADME, organism-based; design: time infinity, dose 1 mg/kg, route intravenous; conditions: plasma

T1 sequence (O35433 whole entry): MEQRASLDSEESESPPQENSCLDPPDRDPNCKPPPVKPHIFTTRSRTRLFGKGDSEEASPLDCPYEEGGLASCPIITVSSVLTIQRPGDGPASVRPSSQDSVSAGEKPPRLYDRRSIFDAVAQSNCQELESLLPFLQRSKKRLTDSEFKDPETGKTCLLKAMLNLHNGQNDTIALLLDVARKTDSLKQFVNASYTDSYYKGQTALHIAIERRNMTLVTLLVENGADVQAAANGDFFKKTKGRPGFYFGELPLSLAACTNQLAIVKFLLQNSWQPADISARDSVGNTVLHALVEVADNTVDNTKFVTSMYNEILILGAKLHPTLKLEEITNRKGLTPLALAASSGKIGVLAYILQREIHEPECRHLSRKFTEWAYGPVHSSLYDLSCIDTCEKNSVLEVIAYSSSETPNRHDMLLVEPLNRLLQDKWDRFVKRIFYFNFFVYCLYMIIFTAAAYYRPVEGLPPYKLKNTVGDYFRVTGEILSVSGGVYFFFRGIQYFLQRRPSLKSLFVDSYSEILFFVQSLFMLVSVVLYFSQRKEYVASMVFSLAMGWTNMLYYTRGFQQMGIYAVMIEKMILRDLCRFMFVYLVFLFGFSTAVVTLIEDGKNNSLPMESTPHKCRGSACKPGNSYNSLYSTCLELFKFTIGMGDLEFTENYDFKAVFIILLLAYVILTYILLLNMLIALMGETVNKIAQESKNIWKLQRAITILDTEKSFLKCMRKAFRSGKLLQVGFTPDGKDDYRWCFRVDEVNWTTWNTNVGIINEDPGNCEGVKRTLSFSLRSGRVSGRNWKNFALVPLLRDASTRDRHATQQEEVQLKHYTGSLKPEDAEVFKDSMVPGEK

SMILES | IC50 [3] [nM] | IC50 [5] [nM] | further results
Cc1nc(N2CCN(c3ncccc3C(F)(F)F)CC2)[nH]c1-c1ccc(C(F)(F)F)cc1 | 628 | > 4000 | 
Fc1cc(-c2nc(N3CCN(c4ncccc4C(F)(F)F)CC3)[nH]c2-c2cc(F)c(F)c(F)c2)cc(F)c1F | 44 | 32 | 
C[C@@H]1CN(c2ncc(CO)cc2Cl)CCN1c1nc(-c2cc(F)c(F)c(F)c2)c(-c2ccc(C(F)(F)F)cc2)[nH]1 | 1 | 4 | half-life [1]: 378 min; bioavailability [2]: 40%; Vd [4]: 5.4 L/kg; clearance [6]: 13.3 mL/min/kg; Cmax [7]: 347 ng/mL; Tmax [8]: 4.7 h; AUC(0-inf) [9]: 2460 ng·h/mL; AUC(0-inf) [10]: 1230 ng·h/mL
CC(C)N1CCN(C(=O)c2nc(N3CCN(c4ncccc4C(F)(F)F)CC3)[nH]c2-c2ccc(C(F)(F)F)cc2)CC1 | 700 | 1000 | 
C[C@@H]1CN(c2ncccc2C(F)(F)F)CCN1c1nc(-c2ccccc2)c(-c2ccc(C(F)(F)F)cc2)[nH]1 | 117 | 341 | 
FC(F)(F)c1ccc(-c2nc(N3CCN(c4ncccc4C(F)(F)F)CC3)[nH]c2Cl)cc1 | 160 | > 4000 | 
Fc1cc(-c2nc(N3CCN(c4ncccc4C(F)(F)F)CC3)[nH]c2-c2ccc(C(F)(F)F)cc2)cc(F)c1F | 7 | 20 | half-life [1]: 114 min; bioavailability [2]: 3%; Vd [4]: 1.7 L/kg; clearance [6]: 31.7 mL/min/kg; Cmax [7]: 17 ng/mL; Tmax [8]: 1 h; AUC(0-inf) [9]: 80 ng·h/mL; AUC(0-inf) [10]: 529 ng·h/mL
Fc1cc(F)cc(-c2nc(N3CCN(c4ncccc4C(F)(F)F)CC3)[nH]c2-c2ccc(C(F)(F)F)cc2)c1 | 35 | 85 | 

The next lines start with results.

IC50 [3] [nM] | IC50 [5] [nM] | SMILES | further results
107 | 216 | FC(F)(F)c1ccc(-c2[nH]c(N3CCN(c4ncccc4C(F)(F)F)CC3)nc2-c2ccccc2)cc1 | half-life [1]: 138 min; bioavailability [2]: 6%; Vd [4]: 5 L/kg; clearance [6]: 167 mL/min/kg; Cmax [7]: 13 ng/mL; Tmax [8]: 1.3 h; AUC(0-inf) [9]: 30 ng·h/mL; AUC(0-inf) [10]: 105 ng·h/mL
1170 | 180 | COC(=O)c1nc(N2CCN(c3ncccc3C(F)(F)F)CC2)[nH]c1-c1ccc(C(F)(F)F)cc1 | 
2950 | > 4000 | O=C(NCC1CCCCN1)c1nc(N2CCN(c3ncccc3C(F)(F)F)CC2)[nH]c1-c1ccc(C(F)(F)F)cc1 (stereo not given) | 
1240 | 165 | FC(F)(F)c1cccc(-c2[nH]c(N3CCN(c4ncccc4C(F)(F)F)CC3)nc2-c2ccccc2)c1 | 
573 | 146 | FC(F)(F)c1ccc(-c2nc(N3CCN(c4ncccc4C(F)(F)F)CC3)[nH]c2-c2ccc(C(F)(F)F)cc2)cc1 | 
90 | 160 | OCc1cnc(N2CCN(c3nc(-c4ccccc4)c(-c4ccc(C(F)(F)F)cc4)[nH]3)CC2)c(Cl)c1 | 
26 | 29 | C[C@@H]1CN(c2ncc(CO)cc2Cl)CCN1c1nc(-c2ccccc2)c(-c2ccc(C(F)(F)F)cc2)[nH]1 | 
1900 | > 4000 | CC(C)CN1CCCCC1CNC(=O)c1nc(N2CCN(c3ncccc3C(F)(F)F)CC2)[nH]c1-c1ccc(C(F)(F)F)cc1 (stereo not given) | 
4100 | 3300 | CCN1CCCC1CNC(=O)c1nc(N2CCN(c3ncccc3C(F)(F)F)CC2)[nH]c1-c1ccc(C(F)(F)F)cc1 (stereo not given) | 
861 | > 4000 | FC(F)(F)c1ccc(-c2c[nH]c(N3CCN(c4ncccc4C(F)(F)F)CC3)n2)cc1 | 
